SMILES strings stand for the structures. pEC50, pIC50: −log10 of the molar value. Read-outs that look alike come from different tables or passages of the source.

Series [1] is described as follows: Cytotoxicity by XTT staining in replicon cells. As to conditions: human. On the procedure: (§1) The plates were cultured for 24 hours prior to the addition of compounds. Six serial one half log dilutions of the test articles (high test concentration of 100.0 μM or high test concentration of 1.0 μM) and human interferon-alpha2b (high test 10.0 U/ml) were prepared in cell culture medium and added to the cultured cells in triplicate wells for each dilution. Six wells in the test plates received medium alone as an untreated control. Following 72 hours of culture in the presence of compound, one of the plates was used for the determination of cytotoxicity by staining with XTT and the other for antiviral efficacy by determination of luciferase reporter activity. Cytotoxicity and efficacy data were collected and imported into a customized Excel workbook for determination of the TC50 and EC50 values. […] The y-axis is the percent of virus control and the x-axis is the concentration of drug in μM. […] The y-axis is the percent of virus control and the x-axis is the concentration of drug in M.
A general note: Formazan colour is commonly taken as a measure of viable cells.

The subject of series [2] is HCV genotype 1b luciferase reporter replicon. Put plainly: microbe, parasite or virus in culture. It is filed as cell-based. As to conditions: Hepatitis C virus, HuH-7-Luc/Neo-ET, 72 h, read-out: HCV Replicon EC50/EC95: EC50. In general terms: Replicon systems follow genome replication, usually without infectious particles.
Series [3] shares this test system. The series is described as follows: microbe, parasite or virus in culture. It counts as cell-based. On the procedure:
as §1

Series [4] relates to micro-patterned human hepatocyte co-cultures. The series is described as follows: Human Hepatocyte Co-Cultures (HepatoPac): cytotoxicity and hepatocyte health. It counts as cell-based. As to conditions: for pIC50: Homo sapiens, Hepatocyte. On the procedure: Cytotoxicity and hepatocyte health were assessed in triplicate by measuring ALT leakage, urea production, albumin secretion and cellular ATP contents in micro-patterned human hepatocyte co-cultures (HepatoPac®, Hepregen Corporation) prepared by seeding cryopreserved human hepatocytes (single donor) and 3T3 J2 mouse fibroblasts in microtiter plates according to procedures established by Hepregen. Culture media was replaced with fresh media containing TA, test article, (0, 1, 10 or 30 μM) every 2 or 3 days through day 16. […] Cellular ATP levels were measured on days 9 and 21. ATP signals in stromal-only control cultures (murine 3T3 fibroblasts) were subtracted from those of human HepatoPac co-cultures to obtain hepatocyte-specific effects. See, Table 4, 5 and 6 below.

Setting [5] is: Hepatitis C virus; Huh-7 luc/neo ET cells, 72 hours, luciferase; read-out: HCV Replicon EC50/EC95: EC95.
Where [6] appears, read: Hepatitis C virus; read-out: EC50 in a replicon assay.
[7] abbreviates: listed as stabilized phosphate prodrug (phosphoramidate) of β-D-2′-deoxy-2′-α-fluoro-2′-β-.
Setting [8] is: listed as stabilized racemic phosphate prodrug (phosphoramidate) of β-D-2′-deoxy-2′-α-fluo.
The mark [9] stands for this setting: Hepatitis C virus, parent nucleosides; read-out: EC50 in a replicon assay.

Usually CC50 stands for the concentration at which the toxic effect on the cells reaches its halfway point. Read a high CC50 as better tolerance by the cells. In the case of `C[C@@]1(F)[C@H](O)C(CO)O[C@H]1n1cnc2c(N)nc(N)nc21` (stereo partly shown), the CC50 at 72 h in series [1] is > 100 µM. In addition, the pEC50 in series [2] is 5.17.

In the case of `CC(C)OC(=O)[C@H](C)NP(=O)(OCC1O[C@@H](n2cnc3c(N)nc(N)nc32)[C@](C)(F)[C@@H]1O)Oc1ccccc1` (stereo partly shown), the CC50 at 72 h in series [1] is > 100 µM. For the same compound, the pEC50 in series [2] is 5.68. Besides, in series [3] (setting [5]), the EC95 came to 9.04 µM. Besides, the “Fold increase in activity compared to parent nucleoside” value (shortened to “Fold increase … to parent nucleoside”) in series [3] (Table 7) came out at 3.

`CC(C)OC(=O)[C@H](C)N[P@@](=O)(OCC1O[C@@H](n2ccc(=O)[nH]c2=O)[C@](C)(F)[C@@H]1O)Oc1ccccc1` (stereo partly shown): the CC50 at 72 h in series [1] was > 100 µM. Further, the pEC50 in series [2] is 7.28. In series [3] (setting [5]), the EC95 was 0.31 µM.

`CCOc1nc(N)nc2c1ncn2[C@@H]1O[C@@H]2CO[P@](=O)(OC(C)C)O[C@H]2[C@@]1(C)F`: the CC50 at 72 h in series [1] is > 100 µM. The pEC50 in series [2] is 7.35. In series [3] (setting [5]), the EC95 was found to be 0.259 µM.

Turning to `CNc1nc(N)nc2c1ncn2[C@@H]1OC(COP(=O)(N[C@@H](C)C(=O)OC(C)C)Oc2ccccc2)[C@@H](O)[C@@]1(C)F` (mixture of isomers) [Compound 5, isopropyl ((((R,S)-(2R,3R,4R,5R)-5-(2-amino-6-(methylamino)-9H-purin-9-yl)-4-fluoro-3-hydroxy-4-methyltetrahydrofuran-2-yl)methoxy)-phenoxy-phosphoryl)-L-alaninate], in series [1], the CC50 at 72 h was > 100 µM. In addition, the pEC50 in series [2] and in series [3] (setting [6]) was 7.59 in each case. Also, in series [3] (setting [5]), the EC95 was determined as 0.124 µM. Besides, in series [3] (Table 7), the “Fold increase … to parent nucleoside” value is on record as >600. Also, the results for the “fold increase in activity (versus parent nucleoside)” value in series [3] (setting [7]) and in series [3] (setting [8]) were ≥ 870 and ≥ 600, respectively.

As for `CC(C)OC(=O)[C@H](C)NP(=O)(OCC1O[C@@H](n2cnc3c(N(C)C)nc(N)nc32)[C@](C)(F)[C@@H]1O)Oc1ccccc1` (mixture of isomers) [Compound 7, isopropyl ((((R,S)-(2R,3R,4R,5R)-5-(2-amino-6-(dimethylamino)-9H-purin-9-yl)-4-fluoro-3-hydroxy-4-methyltetrahydrofuran-2-yl)methoxy)-phenoxy-phosphoryl)-L-alaninate], the CC50 at 72 h in series [1] was > 100 µM. Further, the pEC50 in series [2] and in series [3] (setting [6]) was 7.92 each time. The EC95 in series [3] (setting [5]) amounted to 0.071 µM. Moreover, the “Fold increase … to parent nucleoside” value in series [3] (Table 7) is >890. The “fold increase in activity (versus parent nucleoside)” value in series [3] (setting [7]) is reported as > 1,300; in series [3] (setting [8]), > 890.

As for `CNc1nc(N)nc2c1ncn2[C@@H]1O[C@H](CO)[C@@H](O)[C@@]1(C)F` [Compound 4, (2R,3R,4R,5R)-5-(2-amino-6-(methylamino)-9H-purin-9-yl)-4-fluoro-2-(hydroxymethyl)-4-methyltetrahydrofuran-3-ol], in series [1], the CC50 at 72 h is > 100 µM. Further, the pEC50 in series [2] and in series [3] (setting [9]) was 4.80 in each case.

Consider `CNc1nc(N)nc2c1ncn2[C@@H]1OC(CO[P@](=O)(N[C@@H](C)C(=O)OC(C)C)Oc2ccccc2)[C@@H](O)[C@@]1(C)F` (stereo partly shown) [Compound 5-1], for which the cytotoxic concentration (CC50) at 72 h in series [1] was > 100 µM. For the same compound, the pEC50 in series [2] was 7.26. Further, the EC95 in series [3] (setting [5]) turned out to be 0.282 µM. Moreover, in series [3] (Table 7), the “Fold increase … to parent nucleoside” value is reported as >280.

Consider `CN(C)c1nc(N)nc2c1ncn2[C@@H]1O[C@H](CO)[C@@H](O)[C@@]1(C)F` [Compound 6, (2R,3R,4R,5R)-5-(2-amino-6-(dimethylamino)-9H-purin-9-yl)-4-fluoro-2-(hydroxymethyl)-4-methyltetrahydrofuran-3-ol], for which the CC50 at 72 h in series [1] is > 100 µM. Moreover, the pEC50 in series [2] and in series [3] (setting [9]) was 4.97 throughout.

Consider `CN(c1nc(N)nc2c1ncn2[C@@H]1O[C@H](CO)[C@@H](O)[C@@]1(C)F)C1CC1` [Compound 8, (2R,3R,4R,5R)-5-(2-Amino-6-(N-methyl-cyclopropylamino)-9H-purin-9-yl)-4-fluoro-2-(hydroxymethyl)-4-methyltetrahydrofuran-3-ol], for which the CC50 at 72 h in series [1] is > 100 µM. In addition, the pEC50 in series [2] is 5.25.

Consider `CC(C)OC(=O)[C@H](C)NP(=O)(OCC1O[C@@H](n2cnc3c(N(C)C4CC4)nc(N)nc32)[C@](C)(F)[C@@H]1O)Oc1ccccc1` (stereo partly drawn) [Compound 9, isopropyl ((((R,S)-(2R,3R,4R,5R)-5-(2-amino-6-(N-methyl-cyclopropylamino)-9H-purin-9-yl)-4-fluoro-3-hydroxy-4-methyltetrahydrofuran-2-yl)methoxy)-phenoxy-phosphoryl)-L-alaninate], for which, in series [1], the CC50 at 72 h is > 100 µM. In addition, the pEC50 in series [2] was 8.04; in series [3] (Hepatitis C virus, read-out: EC50 in a replicon assay) it was 8.15. The EC95 in series [3] (setting [5]) was 0.054 µM. Moreover, the “Fold increase … to parent nucleoside” value in series [3] (Table 7) is reported as >600.

For `CNc1nc(NC(=O)C(C)C)nc2c1ncn2[C@@H]1O[C@H](CO)[C@@H](O)[C@@]1(C)F` [Compound 15, (2R,3R,4R,5R)-5-(2-isobutyramido-6-methylamino-9H-purin-9-yl)-4-fluoro-2-(hydroxymethyl)-4-methyltetrahydrofuran-3-ol], the CC50 at 72 h in series [1] was > 100 µM. In series [2], the pEC50 is < 4.00.

Consider `CNc1nc(NC(=O)C(C)C)nc2c1ncn2[C@@H]1OC(COP(=O)(N[C@@H](C)C(=O)OC(C)C)Oc2ccccc2)[C@@H](O)[C@@]1(C)F` (stereo partly drawn) [Compound 16, isopropyl ((((R,S)-(2R,3R,4R,5R)-5-(2-isobutyramido-6-methylamino-9H-purin-9-yl)-4-fluoro-3-hydroxy-4-methyltetrahydrofuran-2-yl)methoxy)-phenoxy-phosphoryl)-L-alaninate], for which, in series [1], the CC50 at 72 h is > 100 µM. Further, the pEC50 in series [2] is 6.24. Besides, the EC95 in series [3] (setting [5]) came to 3.69 µM.

Consider `CCN(C)c1nc(N)nc2c1ncn2[C@@H]1O[C@H](CO)[C@@H](O)[C@@]1(C)F` [Compound 17, (2R,3R,4R,5R)-5-(2-amino-6-(N-methyl-ethylamino)-9H-purin-9-yl)-4-fluoro-2-(hydroxymethyl)-4-methyltetrahydrofuran-3-ol], for which, in series [1], the CC50 at 72 h is > 100 µM. Also, the pEC50 in series [2] is 4.94. Moreover, the EC95 in series [3] (setting [5]) was found to be 65.4 µM.

As for `CCCN(C)c1nc(N)nc2c1ncn2[C@@H]1O[C@H](CO)[C@@H](O)[C@@]1(C)F` [Compound 19, (2R,3R,4R,5R)-5-(2-amino-6-(N-methyl-propylamino)-9H-purin-9-yl)-4-fluoro-2-(hydroxymethyl)-4-methyltetrahydrofuran-3-ol], the CC50 at 72 h in series [1] is > 100 µM. Moreover, the pEC50 in series [2] is 5.13.

`COc1nc(N)nc2c1ncn2[C@@H]1O[C@H](COP(=O)(N[C@@H](C)C(=O)OCC(C)(C)C)Oc2cccc3ccccc23)[C@@H](O)[C@@]1(C)O` (stereo partly shown) [INX-189]: the pIC50 was 4.87 in series [4] (48 h, Table 5, Day 2, read-out: Effect on Albumin Secretion, 50% Inhibitory Concentration (IC50)); < 4.52 in series [4] (48 h, Table 6, Day 2, read-out: Effect on Albumin Secretion, 50% Inhibitory Concentration (IC50)); 5.51 in series [4] (120 h, Table 5, Day 5, read-out: Effect on Albumin Secretion, 50% Inhibitory Concentration (IC50)); 5.38 in series [4] (120 h, Table 6, Day 5, read-out: Effect on Albumin Secretion, 50% Inhibitory Concentration (IC50)); 5.49 in series [4] (168 h, Table 5, Day 7, read-out: Effect on Albumin Secretion, 50% Inhibitory Concentration (IC50)); 5.74 in series [4] (168 h, Table 6, Day 7, read-out: Effect on Albumin Secretion, 50% Inhibitory Concentration (IC50)). For the same compound, the pIC50 in series [4] (216 h, Day 9, read-out: Effect on Cellular ATP Concentrations, 50% Inhibitory Concentration (IC50)) is 5.09; in series [4] (216 h, Table 5, Day 9, read-out: Effect on Albumin Secretion, 50% Inhibitory Concentration (IC50)), 5.62; in series [4] (216 h, Table 6, Day 9, read-out: Effect on Albumin Secretion, 50% Inhibitory Concentration (IC50)), 5.74; in series [4] (288 h, Table 6, Day 12, read-out: Effect on Albumin Secretion, 50% Inhibitory Concentration (IC50)), 5.89; in series [4] (384 h, Table 6, Day 16, read-out: Effect on Albumin Secretion, 50% Inhibitory Concentration (IC50)), > 6.00; in series [4] (504 h, Day 21, read-out: Effect on Cellular ATP Concentrations, 50% Inhibitory Concentration (IC50)) it was 7.00. Moreover, the pIC50 in series [4] (504 h, Table 6, Day 21, read-out: Effect on Albumin Secretion, 50% Inhibitory Concentration (IC50)) was > 6.00. Besides, the “cytotoxicity to human co-cultured hepatocytes (in words)” value in series [4] (text b588) was “highly cytotoxic”.
